Consider 16 compounds from PubChem BioAssay (NCI).

Assay in all cases: inhibition of tumour cell growth, NCI panel, 48 h
Assay [1] concerns LOX IMVI melanoma.
Assay [2] relates to MCF7 breast.
In assay [3] the test system is NCI-H522 lung.
The test system of assay [4] is HCC-2998 colon.
Assay [5] deals with SW-620 colon.
For assay [6], the system named is OVCAR-4 ovarian.
In assay [7] the test system is K-562 leukemia.
Assay [8] relates to MDA-MB-435.
Assay [9] concerns A498 renal.
Assay [10] deals with UO-31 renal.

The structures appear in SMILES notation. Several values for one entry are separate records, joined by “and”; a condition that tells them apart may be missing. Equal entries are not always repeated.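 Dose response: 5 concentrations. Exposure: 48 h. Format: 96-well plates. Endpoint: linear interpolation; highest concentration if not reached. GI50 = concentration required for 50% inhibition of growth. TGI denotes the concentration required for complete inhibition of growth.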

Turning to `Cn1cc(C2=C(c3cn(CCCCC(=N)N)c4ccccc34)C(=O)NC2=O)c2ccccc21`, the GI50 in assay [1] is above 25 µM; in [2] it was 10.9 µM; in assay [3], 18.6 µM; in assay [4], above 25 µM; in [5] it was above 25 µM; in [6], above 25 µM. Besides, the GI50 in [7] is 13.5 µM; in [8], 10.5 µM; in assay [9], above 25 µM; in assay [10] it was above 25 µM. The TGI in [1], in [2], in [3], in [4], in assay [5] and in assay [6] was above 25 µM throughout. Also, the TGI in [7], in assay [8], in [9] and in assay [10] was above 25 µM in each case.

Take `O=C(C=C=Nc1ccccc1)C(=O)N=C=Cc1ccccc1`: the GI50 is 1.93 µM in [1]; 2.35 µM in assay [2]; 1.81 µM in assay [3]; 4.04 µM in assay [4]; 1.72 µM in [5]; 2.15 µM in assay [6]. Moreover, the GI50 is 1.59 µM in [7], 2.33 µM in [8], 16 µM in assay [9] and 1.63 µM in assay [10]. Further, the TGI was 4.48 µM in [1]; 12.6 µM in [2]; 4.97 µM in assay [3]; 9.49 µM in assay [4]; 3.61 µM in assay [5]; 6.41 µM in [6]. Further, the values for the TGI in assay [8], in assay [9] and in assay [10] were 8 µM, 34 µM and 3.82 µM, respectively.

In the case of `O=C(/C=C/c1cccc2ccccc12)Nc1ncc(Cc2ccccc2)s1`, the GI50 in [1] was 0.445 µM; in assay [2], 0.434 µM; in assay [3], 0.703 µM; in assay [4], 2.57 µM; in assay [5], 0.737 µM; in assay [6] it was 2.12 µM. For the same compound, the GI50 was 0.397 µM in assay [7], 0.247 µM in assay [8], 0.189 µM in assay [9] and 1.39 µM in assay [10]. Also, the TGI in assay [1] was 11 µM; in assay [2], above 100 µM; in assay [3] it was above 32.8 µM; in [4], above 100 µM; in [5] it was above 100 µM; in assay [6] it was 5.16 µM. For the same compound, the TGI is above 100 µM in [7], 0.725 µM in assay [8], 0.72 µM in assay [9] and 3.98 µM in assay [10].

Turning to `O=C(Nc1cccc(C(F)(F)F)c1)c1cc2ccccc2cc1O`, the GI50 in assay [1] is 1.92 µM; in [2], 0.708 µM; in assay [3] it was 0.471 µM; in [4], 3.35 µM; in [5] it was 2.51 µM; in [6], 2.04 µM. Also, the GI50 in assay [7] was 0.487 µM; in [8], 1.37 µM; in assay [9], 0.919 µM; in [10], 1.12 µM. Further, the TGI in assay [1] is 14.3 µM; in assay [2] it was above 43.6 µM; in [3], above 19.9 µM; in [4], 28.8 µM; in [5], above 100 µM; in assay [6] it was above 71.1 µM. Further, the TGI in assay [7] was above 100 µM; in [8] it was 4.72 µM; in assay [9], 7.4 µM; in assay [10], above 22.1 µM.

For the compound `Cc1cc(Br)cc(C)c1NC(=O)C(=O)Nn1c(=S)[nH]c2ccccc2c1=O`, the TGI in [1], in [2], in assay [3], in [4], in assay [5] and in assay [6] was above 100 µM each time. Further, the TGI in assay [7], in assay [8], in assay [9] and in assay [10] was above 100 µM each time.

For the compound `COc1cc(Cn2c(-c3ccccc3)cc3c2-c2oncc2CC3)cc(OC)c1`, the GI50 was 0.757 µM in assay [1]; 0.307 µM in assay [2]; 0.0891 µM in assay [3]; 0.387 µM in assay [4]; 0.36 µM in [5]; 0.664 µM in assay [6]. In addition, the GI50 in assay [7] is 0.201 µM; in assay [8] it was 0.0815 µM; in assay [9], 0.153 µM; in assay [10] it was 0.665 µM. For the same compound, the TGI in assay [1] is above 100 µM; in assay [2] it was above 100 µM; in assay [3], 1.98 µM; in [4], above 100 µM; in assay [5], above 100 µM; in [6], above 100 µM. For the same compound, the TGI is above 100 µM in [7], 0.34 µM in assay [8], 0.75 µM in [9] and above 100 µM in [10].

As to `COc1cccc(NC2=C(Cl)C(=O)N(Cc3ccc(Cl)cc3)C2=O)c1`, the GI50 in assay [1] is 1.45 µM; in assay [2], 2.09 µM; in [3], 4.76 µM; in assay [4], 2.64 µM; in assay [5] it was 0.847 µM; in assay [6] it was 9.69 µM. The GI50 in [7] was 0.801 µM; in assay [8], 0.234 µM; in assay [9] it was 11.8 µM; in [10], 7.88 µM. The TGI was above 35.3 µM in assay [1]; above 38.8 µM in [2]; 22.9 µM in assay [3]; 12.7 µM in assay [4]; 14.7 µM in [5]; above 71.5 µM in assay [6]. Besides, the TGI in assay [7] was above 46.3 µM; in assay [8] it was 1.61 µM; in assay [9] it was 27.3 µM; in assay [10] it was 31.7 µM.

As to `COc1cc(/C=N/NC(=O)c2ccccc2Nc2cccc(C(F)(F)F)c2)cc(OC)c1OC`, the GI50 is 4.55 µM in [1]; 1.57 µM in assay [2]; 6.1 µM in [3]; 5.29 µM in assay [4]; 1.71 µM in assay [5]; 3.37 µM in [6]. The GI50 in assay [7] was 2.52 µM; in [8] it was 0.476 µM; in [9], 1.93 µM; in assay [10] it was 6.11 µM. Besides, the TGI stood at 15.4 µM in assay [1]; 6.86 µM in [2]; 24.6 µM in assay [3]; 15.6 µM in assay [4]; 6.36 µM in assay [5]; 15.2 µM in [6]. Besides, the TGI in [7] was above 37.2 µM; in assay [8] it was 1.67 µM; in [9], 6.76 µM; in [10], 21.5 µM.

As to `Cc1c(Cl)cccc1NC(=O)c1sc2nc3c(cc2c1N)CCCC3`, the GI50 in assay [1] is 0.576 µM; in assay [2] it was 0.274 µM; in assay [3] it was 0.241 µM; in [4], above 100 µM; in assay [5], 0.471 µM; in assay [6], 0.827 µM. Moreover, the GI50 in assay [7] was 0.391 µM; in [8], 0.226 µM; in assay [9], 0.413 µM; in assay [10], 3.03 µM. The TGI in assay [1] is above 100 µM; in [2], above 100 µM; in assay [3], 0.812 µM; in assay [4], above 100 µM; in [5], above 100 µM; in assay [6], above 100 µM. For the same compound, the TGI was above 100 µM in assay [7], 0.775 µM in [8], above 100 µM in assay [9] and above 100 µM in assay [10].

For `Oc1ccc(Cl)cc1/C=N\NC(=S)N/N=C/c1cc(Cl)ccc1O`, the GI50 in [1] is 1.65 µM; in assay [2], 3.82 µM; in [3], 1.45 µM; in assay [4], 3.55 µM; in [5] it was 4.41 µM; in assay [6], 2.25 µM. In addition, the GI50 in assay [7] is 2.63 µM; in assay [8] it was 3.74 µM; in assay [9], 2.36 µM; in assay [10], 1.05 µM. Moreover, the TGI in assay [1] was above 100 µM; in [2], above 100 µM; in assay [3] it was 5.15 µM; in assay [4], 86.8 µM; in [5], above 100 µM; in assay [6], 50.3 µM. The TGI is above 100 µM in [7], above 100 µM in [8], 11.5 µM in [9] and 15.5 µM in assay [10].

For the compound `CNC(c1ccncc1)C(NC)c1ccncc1` (centres undefined), the TGI in [1], in [2], in assay [3], in [4], in [5] and in [6] was above 100 µM in each case. In addition, the TGI in [7], in assay [8], in [9] and in assay [10] was above 100 µM each time.

For the compound `CC(/C=N/N=C(N)N)=N\N=C(N)N`, the GI50 in assay [1] is 29.9 µM; in assay [2] it was 19.4 µM; in assay [3], 25.1 µM; in assay [4], 9.52 µM; in [5] it was 15 µM; in assay [6], 13.2 µM. For the same compound, the GI50 is 23.1 µM in assay [7], 23 µM in [8], above 77.9 µM in [9] and 11 µM in assay [10]. The TGI was 202 µM in assay [1]; 1120 µM in assay [2]; 248 µM in assay [3]; > 48.3 µM and 62.7 µM in assay [4]; 2070 µM in [5]; 95.3 µM in [6]. Moreover, the TGI in assay [7] came to 785 µM; in assay [8], 452 µM; in assay [9], 1890 µM; in assay [10], 552 µM.

With `O=C(/C=C/c1ccc([N+](=O)[O-])cc1)c1cccc(Nc2nc(Nc3ccccc3)nc(Nc3ccccc3)n2)c1`, the GI50 is 11.1 µM in assay [1]; 1.19 µM in assay [2]; 12.4 µM in [3]; 18.1 µM in assay [4]; 4.08 µM in assay [5]; 22.1 µM in assay [6]. Also, the GI50 in assay [7] is 2.89 µM; in assay [8], 20 µM; in assay [9], 11.8 µM; in assay [10] it was 2.18 µM. Further, the TGI in assay [1] was 44.6 µM; in assay [2], 4.21 µM; in assay [3], above 100 µM; in assay [4], 68.6 µM; in assay [5], 65.9 µM; in assay [6], above 100 µM. Moreover, the TGI in assay [7] was 28.2 µM; in [8], above 100 µM; in [9] it was 28.1 µM; in assay [10], above 100 µM.

Take `N#C/C(=C\c1ccc2[nH]ccc2c1)C(=O)c1ccc(O)c(O)c1`: the TGI in assay [1], in [2], in assay [3], in [4], in [5] and in assay [6] was above 100 µM in each case. The TGI in [7], in [8], in assay [9] and in assay [10] was above 100 µM throughout.

For the compound `O=S(=O)(O)SCCNCCCCCC1CCCCC1`, the TGI in assay [1] was determined as 4.78 µM; in assay [2], 7.32 µM; in assay [3] it was 37.3 µM; in assay [4], 10.5 µM; in assay [5] it was 21.7 µM; in [6], 32.3 µM. Besides, the TGI is above 35.8 µM in assay [7], 18.5 µM in assay [8], 40.6 µM in assay [9] and 29.8 µM in assay [10].

`CN1CCN(c2ccc3nc(-c4ccc(OCCCCN5CCN(CCCCN6C(=O)c7cccc8cccc(c78)C6=O)CC5)cc4)[nH]c3c2)CC1`: the GI50 was 37.3 µM in assay [1]; 74.7 µM in assay [2]; 52.9 µM in [3]; above 100 µM in assay [4]; 39.2 µM in assay [5]; above 100 µM in [6]. Moreover, the GI50 in assay [7] is above 100 µM; in assay [8], 41 µM; in assay [9], above 100 µM; in [10], 58.4 µM. For the same compound, the TGI in [1], in assay [2], in assay [3], in assay [4], in assay [5] and in assay [6] was above 100 µM each time. The TGI in assay [7], in assay [8], in assay [9] and in assay [10] was above 100 µM throughout.
